Laboratory results reported in patent US7087642B2 (priority 1999, dated 2006).

The molecules below were run on human PBMC T cells (assay: cells). Details: Homo sapiens, 72 h, read-out: T-cells (IC50).
Assay type: cell-based
For `COc1cc(NC(=O)Nc2cccc(CNC(=O)OCCC#N)c2)ccc1-c1cnco1` [Compound 1], the IC50 was 0.1 to 1 µM.
Molecule `COc1cc(NC(=O)Nc2cccc(CNC(=O)OCCOCCC#N)c2)ccc1-c1cnco1` [Compound 2] has an IC50 of 0.1 to 1 µM.
In the case of `COc1cc(NC(=O)Nc2cccc(CNC(=O)OCCN(C)CCC#N)c2)ccc1-c1cnco1` [Compound 3], the IC50 is reported as 0.1 to 1 µM.
In the case of `COc1cc(NC(=O)Nc2cccc(CNC(=O)OCC(OCc3ccco3)N(CCC#N)CC(C)C)c2)ccc1-c1cnco1` (stereo not drawn) [Compound 4], the IC50 is reported as greater than 1 µM.
With `COc1cc(NC(=O)Nc2cccc(CNC(=O)OC[C@@H](N)CC#N)c2)ccc1-c1cnco1` [Compound 5] the IC50 was greater than 1 µM.
For `COc1cc(NC(=O)Nc2cccc(CNC(=O)OC[C@H](CC#N)N(C)C)c2)ccc1-c1cnco1` [Compound 6], the IC50 was 0.1 to 1 µM.
With `COc1cc(NC(=O)Nc2cccc(CNC(=O)OCC(C)(C)CCC#N)c2)ccc1-c1cnco1` [Compound 7] the IC50 was 0.1 to 1 µM.
`CCC(CCC#N)COC(=O)NCc1cccc(NC(=O)Nc2ccc(-c3cnco3)c(OC)c2)c1` (stereo not drawn) [Compound 8] showed an IC50 of 0.1 to 1 µM.
`COc1cc(NC(=O)Nc2cccc(CNC(=O)OC[C@H](N)CC#N)c2)ccc1-c1cnco1` [Compound 9] showed an IC50 of 0.1 to 1 µM.
Molecule `COc1cc(NC(=O)Nc2cccc(CNC(=O)OC[C@H](CC#N)NC(=O)CC(C)(C)C)c2)ccc1-c1cnco1` [Compound 10] has an IC50 of 0.1 to 1 µM.
`COc1cc(NC(=O)Nc2cccc(CNC(=O)OC(COC(C)C)CN(CCC#N)CC(C)C)c2)ccc1-c1cnco1` (stereo not drawn) [Compound 11] was tested, and the IC50 was greater than 1 µM.
`COc1cc(NC(=O)Nc2cccc(CNC(=O)OC[C@@H](CC#N)NC(=O)OC(C)(C)C)c2)ccc1-c1cnco1` [Compound 12] showed an IC50 of 0.1 to 1 µM.
Molecule `COc1cc(NC(=O)Nc2cccc(CNC(=O)OC(CC#N)CC#N)c2)ccc1-c1cnco1` [Compound 13] has an IC50 of 0.1 to 1 µM.
For `COc1cc(NC(=O)Nc2cccc(CNC(=O)OCCN(CCC#N)CCC#N)c2)ccc1-c1cnco1` [Compound 14], the IC50 was greater than 1 µM.
Molecule `COc1cc(NC(=O)Nc2cccc(CNC(=O)OC[C@@H](CC#N)N(C)C)c2)ccc1-c1cnco1` [Compound 15] has an IC50 of 0.1 to 1 µM.
For `COc1cc(NC(=O)Nc2cccc(CNC(=O)O[C@@H](CC#N)CN(C)C)c2)ccc1-c1cnco1` [Compound 22], the IC50 was 0.1 to 1 µM.
Work on `COc1cc(NC(=O)Nc2cccc(CNC(=O)O[C@H](CCl)CC#N)c2)ccc1-c1cnco1` [Compound 23] yielded an IC50 of less than 0.1 µM.
With `COc1cc(NC(=O)Nc2cccc(CNC(=O)OCCCl)c2)ccc1-c1cnco1` [Compound 24] the IC50 was greater than 1 µM.
For `COc1cc(NC(=O)Nc2cccc(CNC(=O)OC(C)CC#N)c2)ccc1-c1cnco1` (stereo not drawn) [Compound 26], the IC50 was less than 0.1 µM.
With `CCC(CC#N)OC(=O)NCc1cccc(NC(=O)Nc2ccc(-c3cnco3)c(OC)c2)c1` (stereo not drawn) [Compound 27] the IC50 was less than 0.1 µM.
Molecule `COc1cc(NC(=O)Nc2cccc(CNC(=O)O[C@@H](C)CN(C)Cc3ccco3)c2)ccc1-c1cnco1` [Compound 30] has an IC50 greater than 1 µM.
`CCCC(CC#N)OC(=O)NCc1cccc(NC(=O)Nc2ccc(-c3cnco3)c(OC)c2)c1` (stereo not drawn) [Compound 32] was tested, and the IC50 was 0.1 to 1 µM.
`CCCCC(CC#N)OC(=O)NCc1cccc(NC(=O)Nc2ccc(-c3cnco3)c(OC)c2)c1` (stereo not drawn) [Compound 33] was tested, and the IC50 was 0.1 to 1 µM.
`CNCCC(OC(=O)NCc1cccc(NC(=O)Nc2ccc(-c3cnco3)c(OC)c2)c1)c1ccccc1` (stereo not drawn) [Compound 34] showed an IC50 greater than 1 µM.
For `COc1cc(NC(=O)Nc2cccc(CNC(=O)OC(CCN(C)C)c3ccccc3)c2)ccc1-c1cnco1` (stereo not drawn) [Compound 35], the IC50 was 0.1 to 1 µM.
Molecule `COc1cc(NC(=O)Nc2cccc(CNC(=O)OC(CC[N+](C)(C)C)c3ccccc3)c2)ccc1-c1cnco1` (stereo not drawn) [Compound 36] has an IC50 greater than 1 µM.
`CCN(CC)CCC(OC(=O)NCc1cccc(NC(=O)Nc2ccc(-c3cnco3)c(OC)c2)c1)C(F)(F)F` (stereo not drawn) [Compound 37] showed an IC50 of 0.1 to 1 µM.

Each molecule was assayed on human PBMC B cells (assay: cells). Details: Homo sapiens, 72 h, read-out: B-cells (IC50).
Assay type: cell-based
For `COc1cc(NC(=O)Nc2cccc(CNC(=O)OCCC#N)c2)ccc1-c1cnco1` [Compound 1], the IC50 was less than 0.1 µM.
With `COc1cc(NC(=O)Nc2cccc(CNC(=O)OCCOCCC#N)c2)ccc1-c1cnco1` [Compound 2] the IC50 was 0.1 to 1 µM.
With `COc1cc(NC(=O)Nc2cccc(CNC(=O)OCCN(C)CCC#N)c2)ccc1-c1cnco1` [Compound 3] the IC50 was 0.1 to 1 µM.
Work on `COc1cc(NC(=O)Nc2cccc(CNC(=O)OCC(OCc3ccco3)N(CCC#N)CC(C)C)c2)ccc1-c1cnco1` (stereo not drawn) [Compound 4] yielded an IC50 greater than 1 µM.
With `COc1cc(NC(=O)Nc2cccc(CNC(=O)OC[C@@H](N)CC#N)c2)ccc1-c1cnco1` [Compound 5] the IC50 was greater than 1 µM.
In the case of `COc1cc(NC(=O)Nc2cccc(CNC(=O)OC[C@H](CC#N)N(C)C)c2)ccc1-c1cnco1` [Compound 6], the IC50 is reported as 0.1 to 1 µM.
Work on `COc1cc(NC(=O)Nc2cccc(CNC(=O)OCC(C)(C)CCC#N)c2)ccc1-c1cnco1` [Compound 7] yielded an IC50 of 0.1 to 1 µM.
`CCC(CCC#N)COC(=O)NCc1cccc(NC(=O)Nc2ccc(-c3cnco3)c(OC)c2)c1` (stereo not drawn) [Compound 8] showed an IC50 of 0.1 to 1 µM.
`COc1cc(NC(=O)Nc2cccc(CNC(=O)OC[C@H](N)CC#N)c2)ccc1-c1cnco1` [Compound 9] gave an IC50 of 0.1 to 1 µM.
`COc1cc(NC(=O)Nc2cccc(CNC(=O)OC[C@H](CC#N)NC(=O)CC(C)(C)C)c2)ccc1-c1cnco1` [Compound 10] showed an IC50 greater than 1 µM.
In the case of `COc1cc(NC(=O)Nc2cccc(CNC(=O)OC(COC(C)C)CN(CCC#N)CC(C)C)c2)ccc1-c1cnco1` (stereo not drawn) [Compound 11], the IC50 is reported as 0.1 to 1 µM.
`COc1cc(NC(=O)Nc2cccc(CNC(=O)OC[C@@H](CC#N)NC(=O)OC(C)(C)C)c2)ccc1-c1cnco1` [Compound 12] was tested, and the IC50 was 0.1 to 1 µM.
`COc1cc(NC(=O)Nc2cccc(CNC(=O)OC(CC#N)CC#N)c2)ccc1-c1cnco1` [Compound 13] was tested, and the IC50 was 0.1 to 1 µM.
`COc1cc(NC(=O)Nc2cccc(CNC(=O)OCCN(CCC#N)CCC#N)c2)ccc1-c1cnco1` [Compound 14] showed an IC50 of 0.1 to 1 µM.
For `COc1cc(NC(=O)Nc2cccc(CNC(=O)OC[C@@H](CC#N)N(C)C)c2)ccc1-c1cnco1` [Compound 15], the IC50 was 0.1 to 1 µM.
`COc1cc(NC(=O)Nc2cccc(CNC(=O)O[C@@H](CC#N)CN(C)C)c2)ccc1-c1cnco1` [Compound 22] showed an IC50 of 0.1 to 1 µM.
Molecule `COc1cc(NC(=O)Nc2cccc(CNC(=O)O[C@H](CCl)CC#N)c2)ccc1-c1cnco1` [Compound 23] has an IC50 of less than 0.1 µM.
With `COc1cc(NC(=O)Nc2cccc(CNC(=O)OCCCl)c2)ccc1-c1cnco1` [Compound 24] the IC50 was greater than 1 µM.
`COc1cc(NC(=O)Nc2cccc(CNC(=O)OC(C)CC#N)c2)ccc1-c1cnco1` (stereo not drawn) [Compound 26] gave an IC50 of less than 0.1 µM.
Work on `CCC(CC#N)OC(=O)NCc1cccc(NC(=O)Nc2ccc(-c3cnco3)c(OC)c2)c1` (stereo not drawn) [Compound 27] yielded an IC50 of less than 0.1 µM.
Work on `COc1cc(NC(=O)Nc2cccc(CNC(=O)O[C@@H](C)CN(C)Cc3ccco3)c2)ccc1-c1cnco1` [Compound 30] yielded an IC50 of 0.1 to 1 µM.
Molecule `CCCC(CC#N)OC(=O)NCc1cccc(NC(=O)Nc2ccc(-c3cnco3)c(OC)c2)c1` (stereo not drawn) [Compound 32] has an IC50 of less than 0.1 µM.
`CCCCC(CC#N)OC(=O)NCc1cccc(NC(=O)Nc2ccc(-c3cnco3)c(OC)c2)c1` (stereo not drawn) [Compound 33] gave an IC50 of 0.1 to 1 µM.
In the case of `CNCCC(OC(=O)NCc1cccc(NC(=O)Nc2ccc(-c3cnco3)c(OC)c2)c1)c1ccccc1` (stereo not drawn) [Compound 34], the IC50 is reported as 0.1 to 1 µM.
`COc1cc(NC(=O)Nc2cccc(CNC(=O)OC(CCN(C)C)c3ccccc3)c2)ccc1-c1cnco1` (stereo not drawn) [Compound 35] gave an IC50 of 0.1 to 1 µM.
`COc1cc(NC(=O)Nc2cccc(CNC(=O)OC(CC[N+](C)(C)C)c3ccccc3)c2)ccc1-c1cnco1` (stereo not drawn) [Compound 36] was tested, and the IC50 was greater than 1 µM.
For `CCN(CC)CCC(OC(=O)NCc1cccc(NC(=O)Nc2ccc(-c3cnco3)c(OC)c2)c1)C(F)(F)F` (stereo not drawn) [Compound 37], the IC50 was 0.1 to 1 µM.

Each molecule was assayed against IMPDH human type II (Homo sapiens, UniProt P12268) (assay: biochemical). Details: not given.
`COc1cc(NC(=O)Nc2cccc(CNC(=O)OC(CC[N+](C)(C)C)c3ccccc3)c2)ccc1-c1cnco1` (stereo not drawn) [Compound 36] was tested, and the Ki was less than 0.01 µM.

Same assay, conditions: read-out: Ki
`COc1cc(NC(=O)Nc2cccc(CNC(=O)OCCC#N)c2)ccc1-c1cnco1` [Compound 1] gave a Ki of less than 0.01 µM.
`COc1cc(NC(=O)Nc2cccc(CNC(=O)OCCOCCC#N)c2)ccc1-c1cnco1` [Compound 2] gave a Ki of less than 0.01 µM.
With `COc1cc(NC(=O)Nc2cccc(CNC(=O)OCCN(C)CCC#N)c2)ccc1-c1cnco1` [Compound 3] the Ki was less than 0.01 µM.
`COc1cc(NC(=O)Nc2cccc(CNC(=O)OCC(OCc3ccco3)N(CCC#N)CC(C)C)c2)ccc1-c1cnco1` (stereo not drawn) [Compound 4] gave a Ki of less than 0.01 µM.
For `COc1cc(NC(=O)Nc2cccc(CNC(=O)OC[C@@H](N)CC#N)c2)ccc1-c1cnco1` [Compound 5], the Ki was less than 0.01 µM.
With `COc1cc(NC(=O)Nc2cccc(CNC(=O)OC[C@H](CC#N)N(C)C)c2)ccc1-c1cnco1` [Compound 6] the Ki was less than 0.01 µM.
Work on `COc1cc(NC(=O)Nc2cccc(CNC(=O)OCC(C)(C)CCC#N)c2)ccc1-c1cnco1` [Compound 7] yielded a Ki of less than 0.01 µM.
Molecule `CCC(CCC#N)COC(=O)NCc1cccc(NC(=O)Nc2ccc(-c3cnco3)c(OC)c2)c1` (stereo not drawn) [Compound 8] has a Ki of less than 0.01 µM.
`COc1cc(NC(=O)Nc2cccc(CNC(=O)OC[C@H](N)CC#N)c2)ccc1-c1cnco1` [Compound 9] was tested, and the Ki was less than 0.01 µM.
For `COc1cc(NC(=O)Nc2cccc(CNC(=O)OC[C@H](CC#N)NC(=O)CC(C)(C)C)c2)ccc1-c1cnco1` [Compound 10], the Ki was less than 0.01 µM.
In the case of `COc1cc(NC(=O)Nc2cccc(CNC(=O)OC(COC(C)C)CN(CCC#N)CC(C)C)c2)ccc1-c1cnco1` (stereo not drawn) [Compound 11], the Ki is reported as less than 0.01 µM.
Molecule `COc1cc(NC(=O)Nc2cccc(CNC(=O)OC[C@@H](CC#N)NC(=O)OC(C)(C)C)c2)ccc1-c1cnco1` [Compound 12] has a Ki of less than 0.01 µM.
`COc1cc(NC(=O)Nc2cccc(CNC(=O)OC(CC#N)CC#N)c2)ccc1-c1cnco1` [Compound 13] was tested, and the Ki was less than 0.01 µM.
For `COc1cc(NC(=O)Nc2cccc(CNC(=O)OCCN(CCC#N)CCC#N)c2)ccc1-c1cnco1` [Compound 14], the Ki was less than 0.01 µM.
In the case of `COc1cc(NC(=O)Nc2cccc(CNC(=O)OC[C@@H](CC#N)N(C)C)c2)ccc1-c1cnco1` [Compound 15], the Ki is reported as less than 0.01 µM.
Molecule `COc1cc(NC(=O)Nc2cccc(CNC(=O)O[C@@H](CC#N)CN(C)C)c2)ccc1-c1cnco1` [Compound 22] has a Ki of less than 0.01 µM.
For `COc1cc(NC(=O)Nc2cccc(CNC(=O)O[C@H](CCl)CC#N)c2)ccc1-c1cnco1` [Compound 23], the Ki was less than 0.01 µM.
`COc1cc(NC(=O)Nc2cccc(CNC(=O)OCCCl)c2)ccc1-c1cnco1` [Compound 24] was tested, and the Ki was less than 0.01 µM.
In the case of `COc1cc(NC(=O)Nc2cccc(CNC(=O)OC(C)CC#N)c2)ccc1-c1cnco1` (stereo not drawn) [Compound 26], the Ki is reported as less than 0.01 µM.
`CCC(CC#N)OC(=O)NCc1cccc(NC(=O)Nc2ccc(-c3cnco3)c(OC)c2)c1` (stereo not drawn) [Compound 27] gave a Ki of less than 0.01 µM.
Molecule `COc1cc(NC(=O)Nc2cccc(CNC(=O)O[C@@H](C)CN(C)Cc3ccco3)c2)ccc1-c1cnco1` [Compound 30] has a Ki of less than 0.01 µM.
`CCCC(CC#N)OC(=O)NCc1cccc(NC(=O)Nc2ccc(-c3cnco3)c(OC)c2)c1` (stereo not drawn) [Compound 32] showed a Ki of less than 0.01 µM.
`CCCCC(CC#N)OC(=O)NCc1cccc(NC(=O)Nc2ccc(-c3cnco3)c(OC)c2)c1` (stereo not drawn) [Compound 33] gave a Ki of less than 0.01 µM.
With `CNCCC(OC(=O)NCc1cccc(NC(=O)Nc2ccc(-c3cnco3)c(OC)c2)c1)c1ccccc1` (stereo not drawn) [Compound 34] the Ki was less than 0.01 µM.
Work on `COc1cc(NC(=O)Nc2cccc(CNC(=O)OC(CCN(C)C)c3ccccc3)c2)ccc1-c1cnco1` (stereo not drawn) [Compound 35] yielded a Ki of less than 0.01 µM.
`CCN(CC)CCC(OC(=O)NCc1cccc(NC(=O)Nc2ccc(-c3cnco3)c(OC)c2)c1)C(F)(F)F` (stereo not drawn) [Compound 37] was tested, and the Ki was less than 0.01 µM.
